Measured values from doi:10.1101/2024.12.04.24318244v2 (medrxiv, 2024).
pKi: −log10 of the molar value. Where a name gives a salt, the structure may show the parent alone. Read-outs that look alike come from different tables or passages of the source.

Assays:
Test in all cases: radioligand competition binding
5-HT1A = molecular target: T1, 5-HT1A (Homo sapiens, UniProt P08908)
T1 sequence (P08908 1-422): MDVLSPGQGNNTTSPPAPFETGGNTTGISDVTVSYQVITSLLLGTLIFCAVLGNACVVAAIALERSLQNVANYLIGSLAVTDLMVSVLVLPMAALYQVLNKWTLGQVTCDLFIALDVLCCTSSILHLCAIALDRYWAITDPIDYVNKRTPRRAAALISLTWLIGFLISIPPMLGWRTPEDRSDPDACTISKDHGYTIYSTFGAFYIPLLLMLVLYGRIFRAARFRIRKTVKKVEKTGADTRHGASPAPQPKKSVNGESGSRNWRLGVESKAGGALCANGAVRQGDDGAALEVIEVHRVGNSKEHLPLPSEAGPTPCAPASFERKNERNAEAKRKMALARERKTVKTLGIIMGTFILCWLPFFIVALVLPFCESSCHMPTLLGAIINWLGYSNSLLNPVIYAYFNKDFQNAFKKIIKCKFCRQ

5-HT2B = 5-HT2B (Homo sapiens, UniProt P41595)
S2R = molecular target: S2R

Sequence of 5-HT2B (P41595 whole entry): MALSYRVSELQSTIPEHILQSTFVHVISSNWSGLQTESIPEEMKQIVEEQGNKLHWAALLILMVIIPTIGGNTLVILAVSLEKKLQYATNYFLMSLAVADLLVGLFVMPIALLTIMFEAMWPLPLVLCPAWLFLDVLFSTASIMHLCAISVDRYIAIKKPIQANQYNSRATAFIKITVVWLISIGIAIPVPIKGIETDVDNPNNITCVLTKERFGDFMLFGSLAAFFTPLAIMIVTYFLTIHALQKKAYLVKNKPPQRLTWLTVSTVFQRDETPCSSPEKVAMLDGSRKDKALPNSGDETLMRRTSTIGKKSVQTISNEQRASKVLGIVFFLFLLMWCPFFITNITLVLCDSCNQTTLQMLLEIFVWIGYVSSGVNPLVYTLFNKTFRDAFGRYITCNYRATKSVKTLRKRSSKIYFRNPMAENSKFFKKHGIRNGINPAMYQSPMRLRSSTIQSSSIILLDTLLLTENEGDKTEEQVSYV

| SMILES | pKi (5-HT1A; text b38 prints a wider range than the table) | pKi (5-HT2B) | pKi (S2R) | pKi (5-HT1A) | pKi (S2R; text b35 prints a range that differs from the table) |
| --- | --- | --- | --- | --- | --- |
| CC(=O)Nc1cccc(N2CCN(CCCCNS(=O)(=O)CC3CCCCC3)CC2)c1 [NP-18-2, N-{3-[4-(4-cyclohexylmethanesulfonylaminobutyl)-piperazin-1-yl]phenyl} acetamide hydrochloride] | 7.96 to 8.30 | < 5.30 | < 5.70 |  |  |
| N#Cc1cc(CN2CCC(Nc3ncnc4sc(Cl)cc34)CC2)ccc1F [NP-18-3, 5-((4-(6-chlorothieno[2,3-d]pyrimidin-4-ylamino)piperidine-1-yl)methyl)-2-fluorobenzonitrile monofumarate] |  | 8.47 | 7.38 |  |  |
| CC(C)n1c(=O)c(C(=O)NCCCN2CCCCC2)c(O)c2ccsc21 [PRX-3140, 6,7-Dihydro-4-hydroxy-7-isopropyl-6-oxo-N-(3-(piperidin-1-yl)propyl)thieno[2,3-b]pyridine-5-carboxamide potassium salt] |  | < 5.30 |  | < 5.30 | 7.44 |
